The NIST ThermoML archive (doi:10.1021/je060271a)

Conditions: 283.15 K, Liquid, Vibrating tube method

CCCC(=O)OCC(COC(=O)CCC)(COC(=O)CCC)COC(=O)CCC [pentaerythritol tetrabutyrate]
Conditions | mass density [kg/m3]
5069.8 kPa | 1062.1
5785 kPa | 1062.4
5790.3 kPa | 1062.5
5796.4 kPa | 1062.5
6791.4 kPa | 1063
7204.6 kPa | 1063.2
7259.3 kPa | 1063.3
7320.1 kPa | 1063.4
7411.4 kPa | 1063.4
7437.1 kPa | 1063.4
7462.9 kPa | 1063.3
7545.9 kPa | 1063.4
7572.6 kPa | 1063.5
7606 kPa | 1063.5
7632.9 kPa | 1063.5
7657.7 kPa | 1063.5
7681.7 kPa | 1063.5
7710.4 kPa | 1063.4
7734.6 kPa | 1063.6
8293.1 kPa | 1063.8
11358 kPa | 1065.7
11377 kPa | 1065.7
11399 kPa | 1065.7
11419 kPa | 1065.6
11438 kPa | 1065.6
11456 kPa | 1065.7
11667 kPa | 1065.7
11687 kPa | 1066
11708 kPa | 1065.9
11731 kPa | 1065.8
11751 kPa | 1065.9
11775 kPa | 1066
11795 kPa | 1066
11816 kPa | 1065.9
11836 kPa | 1065.9
11862 kPa | 1065.9
11882 kPa | 1065.9
11903 kPa | 1065.9
11928 kPa | 1066
11949 kPa | 1066
11995 kPa | 1065.9
12016 kPa | 1066
13152 kPa | 1066.7
13178 kPa | 1066.7
13234 kPa | 1066.6
13898 kPa | 1067.1
15509 kPa | 1068
15590 kPa | 1068
15620 kPa | 1068.1
15664 kPa | 1068.1
15701 kPa | 1068
15739 kPa | 1068
15784 kPa | 1068.2
15822 kPa | 1068.1
15860 kPa | 1068.2
15906 kPa | 1068.2
17727 kPa | 1069.2
17738 kPa | 1069.3
17748 kPa | 1069.2
17759 kPa | 1069.3
17769 kPa | 1069.2
17778 kPa | 1069.1
18091 kPa | 1069.4
18103 kPa | 1069.5
18112 kPa | 1069.4
18122 kPa | 1069.4
18135 kPa | 1069.5
18145 kPa | 1069.4
18166 kPa | 1069.5
18176 kPa | 1069.4
18264 kPa | 1069.5
18274 kPa | 1069.6
18296 kPa | 1069.4
18306 kPa | 1069.5
18318 kPa | 1069.6
18328 kPa | 1069.5
18338 kPa | 1069.5
18351 kPa | 1069.5
18864 kPa | 1069.8
18899 kPa | 1069.8
18956 kPa | 1069.9
18967 kPa | 1069.8
18980 kPa | 1069.6
18991 kPa | 1069.8
19143 kPa | 1069.9
19349 kPa | 1070.2
19360 kPa | 1070.1
19371 kPa | 1070.1
19383 kPa | 1070
19397 kPa | 1070.1
19419 kPa | 1070.1
19433 kPa | 1070.3
19458 kPa | 1070.2
19470 kPa | 1070.1
20345 kPa | 1070.6
20358 kPa | 1070.6
20371 kPa | 1070.7
20383 kPa | 1070.7
20398 kPa | 1070.7
20411 kPa | 1070.7
20426 kPa | 1070.8
20439 kPa | 1070.8
20452 kPa | 1070.6
20631 kPa | 1070.8
20647 kPa | 1070.9
20659 kPa | 1070.9
20673 kPa | 1070.8
20689 kPa | 1070.8
20702 kPa | 1070.8
20718 kPa | 1070.8
20731 kPa | 1070.8
20744 kPa | 1070.9
20757 kPa | 1070.9
20943 kPa | 1071
20960 kPa | 1071
20973 kPa | 1071
20987 kPa | 1071
21354 kPa | 1071.2
21371 kPa | 1071.2
21386 kPa | 1071.4
21583 kPa | 1071.3
21614 kPa | 1071.3
21629 kPa | 1071.5
21646 kPa | 1071.3
21661 kPa | 1071.2
21676 kPa | 1071.4
21691 kPa | 1071.4
21708 kPa | 1071.3
21738 kPa | 1071.4
21756 kPa | 1071.4
21770 kPa | 1071.4
21833 kPa | 1071.5
21848 kPa | 1071.5
21866 kPa | 1071.5
21881 kPa | 1071.5
21895 kPa | 1071.5
21910 kPa | 1071.5
21928 kPa | 1071.5
21943 kPa | 1071.7
21958 kPa | 1071.6
21976 kPa | 1071.6
21991 kPa | 1071.5
22008 kPa | 1071.6
22350 kPa | 1071.7
22366 kPa | 1071.8
22381 kPa | 1071.6
